Where two headings read alike, the source gives them in different places.
Target: T1, Zcchc11 enzyme (Homo sapiens, UniProt Q5TAX3)
T1 construct: made in house; host or cells: HEK293 cells (Zcchc11); E. coli Rosetta II (LIN28A)
T1 sequence (Q5TAX3 212-1420): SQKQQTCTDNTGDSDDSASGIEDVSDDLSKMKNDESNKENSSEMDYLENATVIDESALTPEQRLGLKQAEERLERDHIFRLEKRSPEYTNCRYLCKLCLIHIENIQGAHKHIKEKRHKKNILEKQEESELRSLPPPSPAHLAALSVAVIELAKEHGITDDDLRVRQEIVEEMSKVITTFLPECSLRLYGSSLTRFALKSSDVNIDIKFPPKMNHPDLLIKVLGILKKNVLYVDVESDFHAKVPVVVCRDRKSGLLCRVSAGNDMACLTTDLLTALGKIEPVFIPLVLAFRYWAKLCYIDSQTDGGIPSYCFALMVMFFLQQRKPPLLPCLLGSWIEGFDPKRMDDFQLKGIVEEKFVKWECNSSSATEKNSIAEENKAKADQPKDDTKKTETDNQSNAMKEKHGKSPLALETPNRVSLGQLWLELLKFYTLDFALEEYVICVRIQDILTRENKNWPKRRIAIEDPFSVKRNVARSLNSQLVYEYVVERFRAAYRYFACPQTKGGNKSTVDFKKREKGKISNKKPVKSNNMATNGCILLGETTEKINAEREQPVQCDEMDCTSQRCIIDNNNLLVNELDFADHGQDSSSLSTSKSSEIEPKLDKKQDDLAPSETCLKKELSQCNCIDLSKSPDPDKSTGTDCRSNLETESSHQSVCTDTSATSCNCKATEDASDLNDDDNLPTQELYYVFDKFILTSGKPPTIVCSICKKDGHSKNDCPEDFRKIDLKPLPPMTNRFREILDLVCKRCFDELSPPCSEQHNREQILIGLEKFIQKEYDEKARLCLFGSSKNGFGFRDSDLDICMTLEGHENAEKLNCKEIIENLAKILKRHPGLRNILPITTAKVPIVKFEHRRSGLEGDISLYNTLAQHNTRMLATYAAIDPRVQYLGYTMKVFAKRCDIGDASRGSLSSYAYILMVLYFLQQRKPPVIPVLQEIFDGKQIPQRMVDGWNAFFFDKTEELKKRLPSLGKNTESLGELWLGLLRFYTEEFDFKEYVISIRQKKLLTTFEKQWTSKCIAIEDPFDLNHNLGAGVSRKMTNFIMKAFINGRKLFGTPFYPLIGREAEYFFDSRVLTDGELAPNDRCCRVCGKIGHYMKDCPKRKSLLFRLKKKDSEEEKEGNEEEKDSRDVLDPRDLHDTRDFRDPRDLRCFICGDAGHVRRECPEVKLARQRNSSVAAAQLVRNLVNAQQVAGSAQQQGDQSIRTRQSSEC
Assay: TUTase assay (Zcchc11 assay, Lin28a-dependent polyuridylation of pre-let-7)
Format: biochemical
Settings: read-out: Potency Lin28a-dep Z11 IC50
Outline: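 Human Zcchc11 residues 212-1420 (HEK293-expressed, MBP tag cleaved, C-terminal FLAG) at 0.2 nM, with 10 nM full-length human LIN28A and 2 nM 5′-fluorescein pre-let-7, preincubated with compound 30 min at room temperature. Reaction started with 5 uM UTP plus 4 nM 3′-rhodamine A20 quench probe; fluorescein loss read kinetically, IC50 from initial rates.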

[1] = Lin28a-dependent Zcchc11 (Z11) TUTase assay
[2] = Lin28a-dependent Zcchc11 (Z11) TUTase activity
[3] = LIN28A 10 nM, Zcchc11 0.2 nM, 5′-fluorescein pre-let-7 miRNA 2 nM, UTP 5 uM, room temperature, 30 minutes pre-incubation

IC50 [1] [µM]	IC50 [2] [µM]	SMILES	other results
≤ 1		CN(C)C1CN(c2ccc(-n3cc(C(=O)O)c(=O)c4cc(Cl)c(N5[C@@H](COc6nc(OC7CC7)ccc6Cl)C[C@H]6C[C@H]65)cc43)cn2)C1 [Example 672, 6-chloro-7-((1R,3R,5R)-3-(((3-chloro-6-cyclopropoxy-pyridin-2-yl)oxy)methyl)-2-azabicyclo[3.1.0]hexan-2-yl)-1-(6-(3-(dimethylamino)azetidin-1-yl)pyridin-3-yl)-4-oxo-1,4-dihydroquinoline-3-carboxylic acid]	
	≤ 1	COc1ccc(Cl)c(OC[C@H]2CCCN2c2cc3c(cc2Cl)c(=O)c(C(=O)O)cn3-c2ccc(N3CC(N(C)C)C3)nc2)n1 [Compound 299, (R)-6-chloro-7-(2-(((3-chloro-6-methoxy-pyridin-2-yl)oxy)methyl)pyrrolidin-1-yl)-1-(6-(3-(dimethyl-amino)azetidin-1-yl)pyridin-3-yl)-4-oxo-1,4-dihydro-quinoline-3-carboxylic acid]	
≤ 1		O=C(O)c1cn(-c2cc3nc[nH]c3cn2)c2cc(N3CCC[C@@H]3COc3ncccc3Cl)c(Cl)cc2c1=O [Example 604, (R)-6-chloro-7-(2-(((3-chloropyridin-2-yl)oxy)methyl)pyrrolidin-1-yl)-1-(3H-imidazo[4,5-c]pyridin-6-yl)-4-oxo-1,4-dihydroquinoline-3-carboxylic acid]	
	≤ 1	CN(C)C1CN(c2ncc(-n3cc(C(=O)O)c(=O)c4cc(Cl)c(N5CC(c6cccnc6)C[C@@H]5COc5ncccc5Cl)cc43)cn2)C1 (stereo partly drawn) [Compound 303, 6-chloro-7-((2R)-2-(((3-chloropyridin-2-yl)oxy)methyl)-4-(pyridin-3-yl)pyrrolidin-1-yl)-1-(2-(3-(dimethyl-amino)azetidin-1-yl)pyrimidin-5-yl)-4-oxo-1,4-dihydro-quinoline-3-carboxylic acid]	
	> 50	O=C(O)c1cn(-c2ccc(O)cc2F)c2cc(N3CCC[C@@H]3COc3ccccc3)c(F)cc2c1=O [Compound 90, (R)-6-fluoro-1-(2-fluoro-4-hydroxy-phenyl)-4-oxo-7-(2-(phenoxy-methyl)pyrrolidin-1-yl)-1,4-dihydro-quinoline-3-carboxylic acid]	
≤ 1		Cc1cccc(-n2cc(C(=O)O)c(=O)c3cc(F)c(N4CCC[C@@H]4COc4ccccn4)cc32)c1C [Example 392, (R)-1-(2,3-dimethylphenyl)-6-fluoro-4-oxo-7-(2-((pyridin-2-yloxy)methyl)pyrrolidin-1-yl)-1,4-dihydroquinoline-3-carboxylic acid]	
≤ 1		CN(C)C1CN(c2ccc(-n3cc(C(=O)O)c(=O)c4cc(Cl)c(N5CC[C@H](O)[C@@H]5COc5ncccc5Cl)cc43)cn2)C1 [Example 667, 6-chloro-7-((2S,3S)-2-(((3-chloropyridin-2-yl)oxy)methyl)-3-hydroxypyrrolidin-1-yl)-1-(6-(3-(dimethylamino)azetidin-1-yl)pyridin-3-yl)-4-oxo-1,4-dihydroquinoline-3-carboxylic acid]	
	≤ 1	CN(C)C1CN(c2ccc(-n3cc(C(=O)O)c(=O)c4cc(C#N)c(N5CCC[C@@H]5COc5ncccc5F)cc43)cn2)C1 [Compound 169, (R)-6-cyano-1-(6-(3-(dimethyl-amino)azetidin-1-yl)pyridin-3-yl)-7-(2-(((3-fluoropyridin-2-yl)oxy)methyl)pyrrolidin-1-yl)-4-oxo-1,4-dihydro-quinoline-3-carboxylic acid]	

Second part, the compound before the results:

SMILES	IC50 [1] [µM]	IC50 [2] [µM]	other results
CN(C)C1CN(c2ccc(-n3cc(C(=O)O)c(=O)c4cc(C#N)c(N5CCC[C@@H]5COc5ncccc5Cl)cc43)cn2)C1 [Example 542, (R)-7-(2-(((3-chloropyridin-2-yl)oxy)methyl)pyrrolidin-1-yl)-6-cyano-1-(6-(3-(dimethylamino)azetidin-1-yl)pyridin-3-yl)-4-oxo-1,4-dihydroquinoline-3-carboxylic acid]	≤ 1		
CC1(n2cc(C(=O)O)c(=O)c3cc(Cl)c(N4C(=O)CC[C@@H]4COc4ccccn4)cc32)CC1 [Example 24, (R)-6-chloro-1-(1-methylcyclopropyl)-4-oxo-7-(2-oxo-5-((pyridin-2-yloxy)methyl)pyrrolidin-1-yl)-1,4-dihydroquinoline-3-carboxylic acid]			IC50 [3]: > 50 µM
CN(C)C1CN(c2ccc(-n3cc(C(=O)O)c(=O)c4cc(Cl)c(N5CCC6CC65COc5ncccc5Cl)cc43)cn2)C1 (stereo not shown) [Example 48, 6-chloro-7-(1-[[(3-chloropyridin-2-yl)oxy]methyl]-2-azabicyclo[3.1.0]hexan-2-yl)-1-[6-[3-(dimethylamino)azetidin-1-yl]pyridin-3-yl]-4-oxoquinoline-3-carboxylic acid]			IC50 [3]: ≤ 1 µM
O=C(O)c1cn(-c2ccc(O)c(Cl)c2)c2cc(N3CCC[C@@H]3COc3ncccc3Cl)c(Cl)cc2c1=O [Compound 131, (R)-6-chloro-1-(3-chloro-4-hydroxy-phenyl)-7-(2-(((3-chloropyridin-2-yl)oxy)methyl)pyrrolidin-1-yl)-4-oxo-1,4-dihydro-quinoline-3-carboxylic acid]		≤ 1	
CN(C)C1CN(c2ccc(-n3cc(C(=O)O)c(=O)c4cc(Cl)c(N5C(COc6ncccc6Cl)CCS5(=O)=O)cc43)cn2)C1 (stereo not shown) [Compound 311, 6-chloro-7-(3-(((3-chloropyridin-2-yl)oxy)methyl)-1,1-dioxidoiso-thiazolidin-2-yl)-1-(6-(3-(dimethyl-amino)azetidin-1-yl)pyridin-3-yl)-4-oxo-1,4-dihydro-quinoline-3-carboxylic acid]		≤ 1	
O=C(O)c1cn(-c2cnc3[nH]ncc3n2)c2cc(N3CCC[C@@H]3COc3ncccc3Cl)c(Cl)cc2c1=O [Example 549, (R)-6-chloro-7-(2-(((3-chloropyridin-2-yl)oxy)methyl)pyrrolidin-1-yl)-4-oxo-1-(1H-pyrazolo[3,4-b]pyrazin-5-yl)-1,4-dihydroquinoline-3-carboxylic acid]	≤ 1		
O=C(O)c1cn(-c2cccc(F)c2)c2cc(N3CCC[C@@H]3COc3ccccn3)c(F)cc2c1=O [Example 375, (R)-6-fluoro-1-(3-fluorophenyl)-4-oxo-7-(2-((pyridin-2-yloxy)methyl)pyrrolidin-1-yl)-1,4-dihydroquinoline-3-carboxylic acid]	1 to 10		
COCCN(C)C1CN(c2ccc(-n3cc(C(=O)O)c(=O)c4cc(F)c(N5CC(c6cccnc6)C[C@@H]5COc5ncccc5Cl)cc43)cn2)C1 (stereo partly drawn) [Compound 326, 7-[(2R)-2-[[(3-Chloropyridin-2-yl)oxy]methyl]-4-(pyridin-3-yl)pyrrolidin-1-yl]-6-fluoro-1-(6-[3-[(2-methoxyethyl) (methyl)amino]azetidin-1-yl]pyridin-3-yl)-4-oxoquinoline-3-carboxylic acid]		≤ 1	
NCCOc1cccnc1OC[C@H]1CCCN1c1cc2c(cc1Cl)c(=O)c(C(=O)O)cn2-c1ccc(Br)nc1 [Example 50, (R)-7-(2-(((3-(2-aminoethoxy)pyridin-2-yl)oxy)methyl)pyrrolidin-1-yl)-1-(6-bromopyridin-3-yl)-6-chloro-4-oxo-1,4-dihydroquinoline-3-carboxylic acid]			IC50 [3]: ≤ 1 µM
O=C(O)c1cn(-c2ccc(F)cc2)c2cc(N3CCC[C@@H]3COc3ccccn3)c(F)cc2c1=O [Example 378, (R)-6-fluoro-1-(4-fluorophenyl)-4-oxo-7-(2-((pyridin-2-yloxy)methyl)pyrrolidin-1-yl)-1,4-dihydroquinoline-3-carboxylic acid]	≤ 1		
N#CCn1cc(C(=O)O)c(=O)c2cc(Cl)c(N3CCC[C@@H]3COc3ncccc3Cl)cc21 [Example 569, (R)-6-chloro-7-(2-(((3-chloropyridin-2-yl)oxy)methyl)pyrrolidin-1-yl)-1-(cyanomethyl)-4-oxo-1,4-dihydroquinoline-3-carboxylic acid]	≤ 1		

— patent publication US12662491B2 (Redona Therapeutics, Inc., priority 2020, dated 2026)
